# System: TRPV1-overexpressed HEK293 cells
# Details: FIGS. 1F-1K, tested concentrations 0-5 μM
smiles,measurement,value
CC(C)(C)c1cc2c(O)c(c1)Cc1cc(C(C)(C)C)cc(c1O)Cc1cc(C(C)(C)C)cc(c1O)Cc1cc(C(C)(C)C)cc(c1O)C2 [4-tert-Butylcalix[4]arene],toxicity on the cells of the calixarene derivative in the formulation,did not cause any toxicity

# — patent US11918659B2, “Materials and methods for inducing therapeutic hypothermia in a mammalian subject” (priority 2018, dated 2024)
